Literature values as cited in patent US7476499B2 (priority 2006, dated 2009).

Tested on: poliovirus virions

SMILES: Cc1cc(CCCCCCCOc2ccc(C3=NCCO3)cc2)on1 [WIN-51711, Disoxaril]
- mode of action on poliovirus: prevents the uncoating of the viral genome after viral cell entry
